Experimental data taken from PubChem BioAssay (NCI).
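Where inhibition never reached the appropriate level, the endpoint shown equals the highest concentration tested. Otherwise, values were interpolated linearly from a five-concentration, 48-hour dose response in 96-well plates. Here, GI50 denotes the concentration required for 50% inhibition of growth. TGI is the concentration that stops growth completely.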 Where a SMILES comes first, the peptide text is derived from it. [ ]: non-standard residue; d: D form. The star is where a group is joined. Ac5c = NC1(C(=O)O)CCCC1; Boc = CC(C)(C)OC(=O)*; tBu = CC(C)(C)*

Assays:
Test in all cases: NCI anticancer screen, dose series, 48 h
[1] = system: UACC-257 melanoma
[2] = system: NCI-H226 lung
[3] = system: NCI-H23 lung
[4] = system: HOP-92 NSCLC
[5] = system: MDA-MB-231 breast
[6] = system: 786-0 renal
[7] = system: MALME-3M melanoma
[8] = system: MOLT-4 leukemia
[9] = system: EKVX NSCLC
[10] = system: HL-60(TB) leukemia
[11] = system: KM12 colon
[12] = system: HCC-2998 colon
[13] = system: SF-268 CNS
[14] = system: K-562 leukemia
[15] = system: NCI-H522 lung
[16] = system: UO-31 renal
[17] = system: PC-3 prostate
[18] = system: NCI/ADR-RES ovarian
[19] = system: CCRF-CEM leukemia
[20] = system: A498 renal
[21] = system: HCT-15 colon
[22] = system: OVCAR-8 ovarian
[23] = system: MDA-MB-435
[24] = system: COLO 205 colon
[25] = system: SK-MEL-5 melanoma
[26] = system: RXF 393 renal
[27] = system: TK-10 renal
[28] = system: MCF7 breast
[29] = system: HT29 colon
[30] = system: SK-MEL-2 melanoma
[31] = system: NCI-H460 lung
[32] = system: CAKI-1 renal
[33] = system: M14 melanoma
[34] = system: OVCAR-4 ovarian
[35] = system: SNB-75 CNS
[36] = system: SF-539 CNS
[37] = system: DU-145 prostate
[38] = system: T-47D breast
[39] = system: HOP-62 NSCLC
[40] = system: IGROV1 ovarian
[41] = system: SN12C renal
[42] = system: HCT-116 colon
[43] = system: HS 578T breast
[44] = system: SF-295 CNS
[45] = system: A549 NSCLC
[46] = system: LOX IMVI melanoma
[47] = system: OVCAR-5 ovarian
[48] = system: RPMI-8226 leukemia
[49] = system: SW-620 colon
[50] = system: UACC-62 melanoma
[51] = system: SNB-19 CNS
[52] = system: SK-MEL-28 melanoma
[53] = system: U251 CNS
[54] = system: SK-OV-3 ovarian
[55] = system: OVCAR-3 ovarian
[56] = system: ACHN renal

For `CC(OC(C)(C)C)C(NC(=O)C(CCCCNC(=O)OC(C)(C)C)NC(=O)C(Cc1c[nH]c2ccccc12)NC(=O)C(N)Cc1ccccc1)C(=O)NC(Cc1ccccc1)C(=O)NC1(C(=O)O)CCCC1` (stereo unspecified) (H-FWK(Boc)T(tBu)F[Ac5c]-OH; configuration not given here), the TGI [1] was over 100 µM, the TGI [2] was over 100 µM and the TGI [3] was over 100 µM. It also gave a TGI [4] of over 100 µM.
In the case of `C/C=C(\C)C(=O)O[C@@H]1C=CC(=O)O[C@H]1COC(=O)[C@H](C)O`, the GI50 [5] is reported as 13.7 µM, the TGI [5] is reported as 29.1 µM and the GI50 [6] is reported as 9.2 µM. The TGI [6] was 21.2 µM, the GI50 [7] was 12.1 µM and the TGI [7] was 25.9 µM. The GI50 [1] was 13.4 µM, the TGI [1] was 46.8 µM and the GI50 [8] was 7.31 µM. For the same compound, the TGI [8] was 28.4 µM, the GI50 [2] was 14.7 µM and the TGI [2] was 44.7 µM. It also gave a GI50 [3] of 18.4 µM, a TGI [3] of 50.6 µM and a GI50 [9] of 19 µM. For the same compound, the TGI [9] was 42.1 µM, the GI50 [4] was 7.83 µM and the TGI [4] was 21.9 µM. For the same compound, the GI50 [10] was 4.41 µM, the TGI [10] was 21.3 µM and the GI50 [11] was 13.3 µM. The TGI [11] was 27 µM, the GI50 [12] was 14.8 µM and the TGI [12] was 28.7 µM. The GI50 [13] was 3.72 µM, the TGI [13] was 19.5 µM and the GI50 [14] was 5.21 µM. It also gave a TGI [14] of over 100 µM, a GI50 [15] of 4.96 µM and a TGI [15] of 20.7 µM. For the same compound, the GI50 [16] was 12.7 µM, the TGI [16] was 27.5 µM and the GI50 [17] was 10.5 µM. The TGI [17] was 31.6 µM, the GI50 [18] was 14.6 µM and the TGI [18] was 56.8 µM. For the same compound, the GI50 [19] was 0.733 µM, the TGI [19] was 17 µM and the GI50 [20] was 15.2 µM. The TGI [20] was 30.4 µM, the GI50 [21] was 5.68 µM and the TGI [21] was 19.5 µM. It also gave a GI50 [22] of 18.1 µM, a TGI [22] of over 100 µM and a GI50 [23] of 15.2 µM. For the same compound, the TGI [23] was 71.6 µM, the GI50 [24] was 6.57 µM and the TGI [24] was 23.7 µM. For the same compound, the GI50 [25] was 12.6 µM, the TGI [25] was 25.1 µM and the GI50 [26] was 6.51 µM. For the same compound, the TGI [26] was 30 µM, the GI50 [27] was 13 µM and the TGI [27] was 25.8 µM. For the same compound, the GI50 [28] was 4.53 µM, the TGI [28] was 18.3 µM and the GI50 [29] was 5.93 µM. The TGI [29] was 20.9 µM, the GI50 [30] was 17.5 µM and the TGI [30] was 68.6 µM. It also gave a GI50 [31] of 12.7 µM, a TGI [31] of 28.6 µM and a GI50 [32] of 27 µM. For the same compound, the TGI [32] was 42.9 µM, the GI50 [33] was 11.1 µM and the TGI [33] was 30 µM. It also gave a GI50 [34] of 11.5 µM, a TGI [34] of 31 µM and a GI50 [35] of 10.8 µM. It also gave a TGI [35] of 32 µM, a GI50 [36] of 16.5 µM and a TGI [36] of 59.4 µM. It also gave a GI50 [37] of 10.8 µM, a TGI [37] of 31.8 µM and a GI50 [38] of 4.64 µM. The TGI [38] was 25.6 µM, the GI50 [39] was 16.8 µM and the TGI [39] was 33.3 µM. The GI50 [40] was 7.46 µM, the TGI [40] was 24.6 µM and the GI50 [41] was 14.5 µM. For the same compound, the TGI [41] was 30.2 µM, the GI50 [42] was 3.39 µM and the TGI [42] was 12.2 µM. The GI50 [43] was 5.61 µM, the TGI [43] was 34.6 µM and the GI50 [44] was 27.4 µM. The TGI [44] was 62.1 µM, the GI50 [45] was 18.7 µM and the TGI [45] was 51.9 µM. It also gave a GI50 [46] of 9.64 µM, a TGI [46] of 22.2 µM and a GI50 [47] of 15.3 µM. The TGI [47] was 31.5 µM, the GI50 [48] was 18.8 µM and the TGI [48] was 44.2 µM. The GI50 [49] was 4.79 µM, the TGI [49] was 15.9 µM and the GI50 [50] was 12.4 µM. It also gave a TGI [50] of 25.5 µM, a GI50 [51] of 19.8 µM and a TGI [51] of 56 µM. The GI50 [52] was 12.4 µM, the TGI [52] was 27.9 µM and the GI50 [53] was 11.5 µM. The TGI [53] was 25 µM, the GI50 [54] was 25.2 µM and the TGI [54] was 88.6 µM. For the same compound, the GI50 [55] was 14 µM, the TGI [55] was 27.6 µM and the GI50 [56] was 6.16 µM. The TGI [56] was 19 µM.
